SMILES strings stand for the structures. Counter-ions that a name gives are not always drawn. Positions of bridges follow the written chain, without caps; N, C: chain ends. Residues, ends and D or L forms follow the SMILES beside them.

A word on the CC50: it is the concentration that lowers cell viability or growth by half. A higher CC50 goes with better tolerance by the cells.

The nature of this series: in vitro. To be noted: rat, gh3-tre-luc cells.

`CN(C)C1CCCCC1` [N,N-Dimethylcyclohexylamine] showed a CC50 at 24 h (AC50 (uM) modified / 1000) greater than 90 µM. Consider `CCc1ccc(CCOc2ccc(CC3SC(=O)NC3=O)cc2)nc1` (stereo not drawn) [Pioglitazone hydrochloride], for which the CC50 at 24 h (AC50 (uM) modified / 1000) is greater than 90 µM. `ClC(Cl)Br` [Bromodichloromethane] gave a 50% cytotoxic concentration (CC50) at 24 h (AC50 (uM) modified / 1000, Tox21_110001=Tox21_200806, viability, 1 nM T3 present, 24 h) greater than 90 µM. In turn, `ClC1=C(Cl)C2(Cl)C3C(Cl)C(Cl)CC3C1(Cl)C2(Cl)Cl` (stereo not drawn) [Technical chlordane] gave a CC50 at 24 h (AC50 (uM) modified / 1000, Tox21_110001=Tox21_200290, viability, 1 nM T3 present, 24 h) of 27.8 µM. `CC(C)C(Br)C(=O)NC(N)=O` (stereo not drawn) [Bromisovalum]: under “AC50 (uM) modified / 1000, Tox21_110001=Tox21_111815, viability, 1 nM T3 present, 24 h”, the CC50 at 24 h was greater than 50 µM. The compound `CS(=O)(=O)NC(=O)c1cc(Oc2ccc(C(F)(F)F)cc2Cl)ccc1[N+](=O)[O-]` [Fomesafen] came in with a CC50 at 24 h (AC50 (uM) modified / 1000) greater than 90 µM. On the same count and under the same terms, to `COc1cc2c(N3CCN(C(=O)Nc4ccc(OC(C)C)cc4)CC3)ncnc2cc1OCCCN1CCCCC1` [Tandutinib] belongs 11.4 µM; to `Cc1ccc(O)c2ncccc12` [Tiliquinol], 4.67 µM. The compound `COc1cc2ncnc(Nc3ccc(F)c(Cl)c3)c2cc1OCCCN1CCOCC1` [Gefitinib] returned a CC50 at 24 h (AC50 (uM) modified / 1000) of 8.92 µM. Still for that read-out and setting: to `CC1COC(Cn2cncn2)(c2ccc(Oc3ccc(Cl)cc3)cc2Cl)O1` (stereo not drawn) [Difenoconazole] belongs 41.3 µM; to `C[Si]1(C)O[Si](C)(C)O[Si](C)(C)O1` [Hexamethylcyclotrisiloxane], greater than 90 µM; to `CCC(C)Nc1c([N+](=O)[O-])cc(C(C)(C)C)cc1[N+](=O)[O-]` (stereo not drawn) [Butralin], 68.1 µM. On the same count and under the same terms, the same measure for `CCN(CC)C(=O)SCc1ccc(Cl)cc1` [Thiobencarb]: greater than 90 µM; for `CSC(=O)c1cccc2nnsc12` [Acibenzolar-S-methyl]: greater than 90 µM; for `COc1ccc(Nc2ccccc2)c(C)c1` [4-Methoxy-2-methyl-N-phenylaniline]: greater than 90 µM. On the same count and under the same terms, the same measure for `CCC(C)n1ncn(-c2ccc(N3CCN(c4ccc(OC[C@H]5CO[C@](Cn6cncn6)(c6ccc(Cl)cc6Cl)O5)cc4)CC3)cc2)c1=O` (mixture of isomers) [Itraconazole]: 3.2 µM.

Take `NC(=O)N(O)[C@@H]1COc2cc(OCc3ccccc3)ccc21` [SB202235]: the CC50 at 24 h (AC50 (uM) modified / 1000) was greater than 90 µM. Regarding `CNC(=O)NC(O)C(Cl)(Cl)Cl` (stereo not drawn) [Mecloralurea], the CC50 at 24 h (AC50 (uM) modified / 1000, Tox21_110001=Tox21_112123, viability, 1 nM T3 present, 24 h) was greater than 50 µM.

Compound `O=C(Nc1ccc(Cl)c(Cl)c1)C1CC1` [Cypromid] had a CC50 at 24 h (AC50 (uM) modified / 1000) greater than 50 µM.

As to `C#C[C@]1(O)CC[C@H]2[C@@H]3CCC4=CC(=O)CC[C@]4(C)[C@H]3CC[C@@]21C` [Ethisterone], the CC50 at 24 h (AC50 (uM) modified / 1000) was greater than 90 µM. Compound `O=C(O)CCCCCCC(=O)O` [Octanedioic acid] showed a CC50 at 24 h (AC50 (uM) modified / 1000) greater than 90 µM. Take `O=C1C(I)=CC(=C(c2cc(I)c(O)c(I)c2)c2ccccc2C(=O)O)C=C1I` [Iodophthalein sodium]: half-maximal cytotoxicity (AC50 (uM) modified / 1000) (CC50 at 24 h) was put at 41.3 µM.

In the case of `Cc1cc(C(C)(C)c2ccc(O)c(C)c2)ccc1O` [3,3'-Dimethylbisphenol A], the half-maximal cytotoxic concentration (CC50) at 24 h (AC50 (uM) modified / 1000) is greater than 90 µM. On the same count and under the same terms, to `O=C(Cl)/C=C/C(=O)Cl` [Fumaryl chloride] belongs greater than 90 µM. On the same count and under the same terms, the same measure for `CN(C(=O)c1c(O)c2ccccc2n(C)c1=O)c1ccccc1` [Roquinimex]: greater than 50 µM. Same read-out and setting: to `CCCCCCCCCCCCCCCCCC(=O)OCC(O)CO` (stereo not drawn) [Glycerol 1-monostearate] belongs greater than 50 µM; to `CCOC(=O)Nc1ccc(NCc2ccc(F)cc2)nc1N` [Flupirtine maleate], greater than 50 µM.

With `CCCCCCCCCCCCCC[N+](C)(C)C` [Myristyltrimethylammonium chlorideN,N,N-Trimethyltetradecan-1-aminium chloride], under “AC50 (uM) modified / 1000”, the CC50 at 24 h came to 9.07 µM. Regarding `CC(C)=CCC/C(C)=C/C=C/C(C)=C/C=C/C(C)=C/C=C/C=C(C)/C=C/C=C(C)/C=C/C=C(\C)CCC=C(C)C` [Lycopene], the CC50 at 24 h (AC50 (uM) modified / 1000) was greater than 50 µM.

Turning to `O=C1CCC(=O)N1Cl` [N-Chlorosuccinimide], for the setting “AC50 (uM) modified / 1000”, the CC50 at 24 h was greater than 90 µM. In turn, `COc1ccc(S(=O)(=O)N2C(=O)[C@@](c3ccccc3OC)(N3C[C@H](O)C[C@H]3C(=O)N(C)C)c3cc(Cl)ccc32)c(OC)c1` [Nelivaptan] displayed a cytotoxic concentration (CC50) at 24 h (AC50 (uM) modified / 1000) of 34.9 µM.

Turning to `COc1ccc2cc1Oc1cc3c(cc1OC)CC[N+](C)(C)[C@H]3Cc1ccc(cc1)Oc1c(OC)c(OC)cc3c1[C@@H](C2)[N+](C)(C)CC3` [Metocurine iodide], under “AC50 (uM) modified / 1000”, the CC50 at 24 h is greater than 50 µM.

Turning to `OCC1CCC(CO)CC1` (stereo not drawn) [1,4-Cyclohexanedimethanol], for the setting “AC50 (uM) modified / 1000”, the CC50 at 24 h is greater than 90 µM. Take `CCn1nc(Cc2ccccc2)cc1C1CCN(C[C@H]2C[C@H](N(C)[C@@H](C(=O)O)C(C)C)C[C@@H]2c2cccc(F)c2)CC1` [MK-578]: the CC50 at 24 h (AC50 (uM) modified / 1000) was 66.4 µM.

Where the note is “AC50 (uM) modified / 1000”, `Cc1ccc2c(ccc3ccccc32)c1` [2-Methylphenanthrene] returned a CC50 at 24 h greater than 90 µM. `O=C(O)CN(CCOCCOCCN(CC(=O)O)CC(=O)O)CC(=O)O` [Egtazic Acid] had a half-maximal cytotoxic concentration (CC50) at 24 h (AC50 (uM) modified / 1000) greater than 50 µM. Still for that read-out and setting: to `COC(=O)COc1ccc(Cl)cc1Cl` [2,4-D-methyl] belongs greater than 90 µM. Still for that read-out and setting: the same measure for `O=C(Oc1cccc2cccnc12)c1ccccc1` [Benzoxiquine]: 12 µM; for `N=C(N)NCC1COC2(CCCCC2)O1` (stereo not drawn) [Guanadrel sulfate]: greater than 20 µM. Still for that read-out and setting: the same measure for `C=CC(C)(CCC=C(C)C)OC=O` (stereo not drawn) [Linalyl formate]: greater than 90 µM; for `COc1cc(C)ccc1C(C)C` [2-Methoxy-4-methyl-1-(propan-2-yl)benzene]: greater than 90 µM. For the compound `CC(C)CCC(=O)O[C@H]1CC[C@H]2[C@@H]3CCC4=CC(=O)CC[C@]4(C)[C@H]3CC[C@]12C` [Testosterone isocaproate], the CC50 at 24 h (AC50 (uM) modified / 1000, Tox21_110001=Tox21_112669, viability, 1 nM T3 present, 24 h) stood at 35.3 µM. With `O=[N+]([O-])c1cccc(S(=O)(=O)NCCNS(=O)(=O)c2cccc([N+](=O)[O-])c2)c1` [Dinsed], the CC50 at 24 h (AC50 (uM) modified / 1000) was greater than 50 µM. Still for that read-out and setting: to `Cc1ccccc1CO[C@@H]1C[C@@]2(C(C)C)CC[C@]1(C)O2` (racemic) [Cinmethylin] belongs greater than 90 µM. As to `CC(=O)C=C(C)C` [4-Methylpent-3-en-2-one], the CC50 at 24 h is greater than 100 µM (AC50 (uM) modified / 1000, Tox21_110001=Tox21_202080, viability, 1 nM T3 present, 24 h) and greater than 90 µM (AC50 (uM) modified / 1000, Tox21_110001=Tox21_303606, viability, 1 nM T3 present, 24 h). `NC(=O)c1ccc(N)cc1` [4-Aminobenzamide] gave a 50% cytotoxic concentration (CC50) at 24 h (AC50 (uM) modified / 1000) greater than 90 µM. `Nc1ccc(NCCO)c([N+](=O)[O-])c1` [HC Red 3]: it took 52.7 µM to reach half-maximal cytotoxicity (AC50 (uM) modified / 1000) (CC50 at 24 h). On the same count and under the same terms, the same measure for `CCCCC(CC)COC(=O)c1ccc(C(=O)OCC(CC)CCCC)cc1` (stereo not drawn) [Bis(2-ethylhexyl) terephthalate]: greater than 90 µM; for `NCCCC[C@H](NC(=O)[C@@H]1CCCN1C(=O)[C@@H]1CSSC[C@H](NC(=O)CNC(=O)CNC(=O)CN)C(=O)N[C@@H](Cc2ccc(O)cc2)C(=O)N[C@@H](Cc2ccccc2)C(=O)N[C@@H](CCC(N)=O)C(=O)N[C@@H](CC(N)=O)C(=O)N1)C(=O)NCC(N)=O` [Terlipressin] (H-GGGCYFQNCPKG-NH2; disulfide 4-9): greater than 50 µM; for `COC(=O)c1ccc(I)cc1S(=O)(=O)NC(=O)Nc1nc(C)nc(OC)n1` [Iodosulfuron-methyl-sodium]: greater than 90 µM. Same read-out and setting: to `C[Si]1(C)N[Si](C)(C)N[Si](C)(C)N1` [2,2,4,4,6,6-Hexamethyl-1,3,5,2,4,6-triazatrisilinane] belongs greater than 90 µM; to `CN1CCN2c3ncccc3Cc3ccccc3C2C1` (stereo not drawn) [Mirtazapine], greater than 50 µM; to `C=C(C)C(=O)OC(C)CO` (stereo not drawn) [Hydroxypropyl methacrylate], greater than 90 µM. Same read-out and setting: to `O=[N+]([O-])c1ccccc1-c1ccccc1` [2-Nitro-1,1'-biphenyl] belongs greater than 90 µM; to `COC(CC(C)CCCC(C)(C)O)OC` (stereo not drawn) [Hydroxycitronellal dimethyl acetal], greater than 90 µM; to `CCc1nnc(NS(=O)(=O)c2ccc(N)cc2)s1` [Sulfaethidole], greater than 50 µM. Regarding `COc1cc(NC(C)CCCN)c2ncccc2c1` (stereo not drawn) [Primaquine diphosphate], where the note is “AC50 (uM) modified / 1000”, the CC50 at 24 h was found to be 15 µM. Still for that read-out and setting: the same measure for `Cc1ccc(S(=O)(=O)O)c(C)c1` [Sodium m-xylene-4-sulfonate]: greater than 90 µM. For `BrCCBr` [1,2-Dibromoethane], the CC50 at 24 h (AC50 (uM) modified / 1000, Tox21_110001=Tox21_201427, viability, 1 nM T3 present, 24 h) was greater than 90 µM. On to `COc1ccc2c(c1OC)C(=O)O[C@H]2[C@@H]1c2cc3c(cc2CCN1C)OCO3` [(1S,9R)-beta-Hydrastine], for which the CC50 at 24 h (AC50 (uM) modified / 1000, Tox21_110001=Tox21_110815, viability, 1 nM T3 present, 24 h) is greater than 50 µM.

`CC(C)OC(=O)c1cc(C(=O)OC(C)C)cc([N+](=O)[O-])c1` [Nitrothal-isopropyl]: for the setting “AC50 (uM) modified / 1000”, the CC50 at 24 h was greater than 90 µM. Consider `C#C[C@]1(OC(C)=O)CC[C@H]2[C@@H]3CCC4=CC(=O)CC[C@@H]4[C@H]3CC[C@@]21C` [Norethindrone acetate], for which the CC50 at 24 h (AC50 (uM) modified / 1000) was greater than 50 µM. For the setting “AC50 (uM) modified / 1000”, `Nc1ccccc1O` [2-Aminophenol] returned a CC50 at 24 h of 40.6 µM.

Where the note is “AC50 (uM) modified / 1000”, `Nc1c(Cl)cc(Cl)cc1[N+](=O)[O-]` [2,4-Dichloro-6-nitroaniline] displayed a CC50 at 24 h greater than 90 µM.

For `CC1(C)[C@@H]2CC[C@@]1(C)C(=O)C2` [D-Camphor], the cytotoxic concentration (CC50) at 24 h (AC50 (uM) modified / 1000) was greater than 90 µM. Same read-out and setting: to `CC(C)COC(=O)COc1cc(Cl)c(Cl)cc1Cl` [Isobutyl (2,4,5-trichlorophenoxy)acetate] belongs greater than 90 µM; to `CC(=O)OCCOC(C)=O` [1,2-Ethanediol diacetate], greater than 90 µM. Still for that read-out and setting: to `CN(C)CCCN` [3-(Dimethylamino)propylamine] belongs greater than 90 µM.

The values above are taken from article PMC6792352, “Limited Chemical Structural Diversity Found to Modulate Thyroid Hormone Receptor in the Tox21 Chemical Library” (Environmental Health Perspectives, 2019).
